This is an account of results in patent publication US11040958B2, “Triazole antimicrobial derivative, pharmaceutical composition and use thereof” (priority 2017, dated 2021).

Bounds are passed on as bounds.

Data set [1] in a line: Solubility test in deionized water (HPLC, external calibration). It is filed as physicochemical. The following applies: deionized water, 25±2°C. The method, then: Experimental condition: 25±2° C.
Dissolving medium: deionized water
Experimental method: 1 mg voriconazole and appropriate amount of each compound were weighed, placed in 1 ml deionized water separately, shaken vigorously for 30 s every 5 mins for 30 mins.

Data set [2] in a line: Pharmacokinetics after single gastrointestinal (gavage) administration in rats (plasma voriconazole). The following applies: SD rats, 2.5 mg/kg (calculated as voriconazole). Format: in vivo. The method, then: Dosing volume for administration: 10 ml/kg
Solvent medium for administration: except for the positive voriconazole group using CMC-Na, the other groups using normal saline
Route of administration: gavage

A short description of data set [3]: Solid stability test (25°C, RH 60%, 30 days). It is filed as physicochemical. The following applies: 25°C±2°C, relative humidity 60%±2%. The method, then:
Experimental conditions: 25° C.±2° C., relative humidity 60%±2%
Experimental instrument: Agilent 1260 HPLC; chamber for stability test
Experimental method: each compound of the present disclosure was packaged (the inner packaging material was a penicillin bottle; the outer packaging material was a double-layer aluminum foil bag, and a desiccant was added inside and outside the package), placed in the chamber for stability test, at a temperature of 25° C.±2° C. and a relative humidity of 60%±2%. The degradation situation of the compounds for 30 days was examined. The contents of total impurities before and after 30 days of each compound were compared and the results were as follows: […]

Data set [4] concerns Candida albicans ATCC10231. Kind of data set: Systemic fungal infection in mice, administration by gavage, survival. Format: in vivo. The settings on record: ICR mice, 5 mg/kg (calculated as voriconazole) once daily for 5 days. The method, then:
(§1) ICR mice, weighing 18-22 g, male, provided by the Hubei Experimental Animal Center.
(§2) The standard strain Candida albicans was purchased from the American Type Culture Collection, and the strain number was ATCC10231.
Before the experiment, a small amount of Candida albicans was picked from the SDA medium preserved at 4° C. by inoculation circle, inoculated into 1 ml of YPD culture medium, and cultured at 30° C. while being shaken at 200 rpm for 16 hours to make the fungus in the late stage of exponential growth. Blood cell counting plate was used to count, and the concentration of the broth was adjusted to 1*10^3−5*10^3 CFU/ml with RPMI1640 medium. The Candida albicans monoclone on the SDA plate was picked, inoculated into 1 ml YPD medium, cultured at 35° C., 200 rpm for 16 hours to the late exponential growth phase, 1% of which was then inoculated in fresh medium for 6 hours, centrifuged at 1000×g for 5 mins, washed three times with saline until the supernatant was colorless, while hemocytometer was used to count. The cell concentration was adjusted to 5*10^6/ml. The tail vein injection of 0.1 ml/10 g was carried out to cause a systemic fungal infection in mice. The mice were randomized into groups of 10 each. Voriconazole used was in the form of a suspension prepared with CMC-Na (Shanghai Panhong Chemical Technology Co., Ltd.), while other tested drugs were dissolved in saline and sonicated until clarified for administration. After establishing a systemic fungal infection model in mice for 2 hours, each group was administered by gavage with 5 mg/kg (calculated as voriconazole) drug, with the volume for administration of 0.1 ml/10 g. The mice in the model group were administered 0.1 ml/10 g of 0.9% sodium chloride solution, once daily, for 5 consecutive days. The death situation of the mice was inspected and the survival time was recorded. After a total of 7 days of observation, all dead mice were treated with fire using ethanol.

Data set [5] in a line: Pharmacokinetics after single intravenous administration in rats (plasma voriconazole). The settings on record: rat, in vivo, 2.5 mg/kg. The method, then:
Dosage for administration: 2.5 mg/kg (calculated as voriconazole)
Dosing volume for administration: 2.5 ml/kg
Drug concentration: 1 mg/mL (calculated as voriconazole)
Route of administration: tail vein injection Experimental animals: SD rats, SPF grade, weighing 180-220 g, half male and half female; the SD rats were randomized into groups of 6 animals each, three males and three females in each group. Experimental method: Blood samples were collected at different time points after tail vein administration, and the plasma concentrations of voriconazole were measured.

Data set [6] concerns Candida albicans ATCC10231. The experiment in a line: Systemic fungal infection in mice, intravenous administration, survival. It is filed as in vivo. The following applies: ICR mice, tail vein, 5 mg/kg (calculated as voriconazole) once daily for 5 days. The method, then:
as §1, §2
Before the experiment, a small amount of Candida albicans was picked from the SDA medium preserved at 4° C. by inoculation circle, and inoculated into 1 ml YPD (Yeast Extract Peptone Dextrose Medium, the same below) culture medium, under shake cultivation at 30° C., 200 rpm, activated for 16 hours to make the fungus in the late stage of the exponential growth phase. Blood cell counting plate was used to count. The concentration of the broth was adjusted to 1*10^3-5*10^3 CFU/ml with RPMI1640 (Roswell Park Memorial Institute 1640, the same below) culture medium. The Candida albicans monoclone on the SDA plate was picked and inoculated into 1 ml YPD medium, cultured at 35° C., 200 rpm for 16 hours to the late exponential growth phase, 1% of which was then inoculated in fresh medium for 6 hours, centrifuged at 1000×g for 5 mins, washed three times with saline until the supernatant was colorless, while hemocytometer was used to count. The cell concentration was adjusted to 5*10^6/ml. The tail vein injection of 0.1 ml/10 g was carried out to cause a systemic fungal infection in mice. The mice were randomized into groups of 10 each. Since voriconazole was insoluble in vehicle (physiological saline), the mice of the voriconazole group in the test were injected a commercially available voriconazole (Pfizer, product lot number Z467001), that is, sulfobutyl ether-β-cyclodextrin used as a solubilizer, while other groups used physiological saline as a solvent. After establishing a systemic fungal infection model in mice for 2 hours, each administration group was administered with 5 mg/kg (calculated as voriconazole) drug in the tail vein, with the volume for administration of 0.1 ml/10 g. The mice in the model group were administered 0.1 ml/10 g of 0.9% sodium chloride solution, once daily, for 5 consecutive days. The death situation of the mice was inspected and the survival time was recorded. After a total of 7 days of observation, all dead mice were treated with fire using ethanol.

The Solubility is the concentration that dissolves in the medium under given conditions. For the compound `CC(OC(=O)OCCOCCOP(=O)(O)O)[n+]1cnn(C[C@](O)(c2ccc(F)cc2F)[C@@H](C)c2ncncc2F)c1` (stereo partly shown) [QR16030], the Solubility in data set [1] was greater than 50 mg/mL. Moreover, in data set [2], the AUClast was 4324 ± 1362 ng·h/mL and the T1/2 is 2.54 ± 1.05 h. The “Content increase of total impurity (25° C., placed for 30 days)” value (“Content increase of total impurity” below) in data set [3] was 0.94%. Moreover, in data set [4], the “survival rate of mice, day 1” value is listed as 100%; the “survival rate of mice, day 2” value is 90%; the “survival rate of mice, day 3” value is 80%; the “survival rate of mice, day 4” value is on record as 70%. For the same compound, in data set [4], the “survival rate of mice, day 5” value is 60% and the “survival rate of mice, day 6” value is listed as 50%.

The Cmax is the maximum level reached in the sampled fluid or tissue. Turning to `CC(OC(=O)N(C)c1ncccc1COC(=O)[C@@H](N)CCCNC(N)=O)[n+]1cnn(C[C@](O)(c2ccc(F)cc2F)[C@@H](C)c2ncncc2F)c1.[Cl-]` (stereo partly shown) [QR16009], the T1/2 entry in data set [5] is listed as “similar”. This compound also returned a Solubility in data set [1] greater than 50 mg/mL. Also, in data set [2], the AUClast was 7225 ± 1310 ng·h/mL, the highest concentration (Cmax) is listed as 925 ± 121 ng/mL and the T1/2 was 1.98 ± 0.87 h. Besides, the “Content increase of total impurity” value in data set [3] turned out to be 0.71%. In data set [4], the “survival rate of mice, day 1” value was 100%; the “survival rate of mice, day 2” value is 80%; the “survival rate of mice, day 3” value is listed as 80%; the “survival rate of mice, day 4” value is listed as 70%. Besides, in data set [4], the “survival rate of mice, day 5” value is 70% and the “survival rate of mice, day 6” value is 70%. Besides, in data set [4] (day 7), the “survival rate of mice, day 7” value is on record as 70%.

With `CC(OC(=O)N(C)c1ccccc1COC(=O)[C@@H](N)CCCN)[n+]1cnn(C[C@](O)(c2ccc(F)cc2F)[C@@H](C)c2ncncc2F)c1.[Cl-]` (stereo partly shown) [QR16007], the “survival rate of mice, day 1” value in data set [6] (day 1) is 100%. Besides, the “survival rate of mice, day 2” value in data set [6] (day 2) is 100%. In addition, in data set [6] (day 3), the “survival rate of mice, day 3” value is 100%. The “survival rate of mice, day 4” value in data set [6] (day 4) was 100%. In data set [6] (day 5), the “survival rate of mice, day 5” value was 100%. The “survival rate of mice, day 6” value in data set [6] (day 6) is on record as 90%. In data set [5], this compound registered an AUClast of 10278 ± 3225 ng·h/mL and a T1/2 of 2.88 ± 1.22 h. In addition, the Solubility in data set [1] is on record as greater than 50 mg/mL. Further, the “Content increase of total impurity” value in data set [3] was 0.73%.

By solubility is commonly meant how much of the substance goes into solution per volume. A high value points to a readily soluble substance. With `CNCc1cccnc1N(C)C(=O)OC(C)[n+]1cnn(C[C@](O)(c2ccc(F)cc2F)[C@@H](C)c2ncncc2F)c1` (stereo partly shown) [QR16023], in data set [5], the T1/2 result is “similar”. In data set [1] (25 °C, thermodynamic from solid), this compound came in with a solubility at 30 min greater than 50 mg/mL. The “Content increase of total impurity” value in data set [3] is listed as 2.63%. Also, in data set [4], the “survival rate of mice, day 1” value is given as 100%; the “survival rate of mice, day 2” value is 90%; the “survival rate of mice, day 3” value is 70%; the “survival rate of mice, day 4” value is on record as 70%. In data set [4], the “survival rate of mice, day 5” value is 60% and the “survival rate of mice, day 6” value is 60%. Further, the “survival rate of mice, day 7” value in data set [4] (day 7, 5 mg/kg) is “same with the positive drug voriconazole group”.
